ChEMBL document CHEMBL4725455, “Use of Dihydroorotate Dehydrogenase Inhibitors for Treatment of Autoimmune Diseases and Cancer” (ACS Med Chem Lett, 2020)

Target: Dihydroorotate dehydrogenase (quinone), mitochondrial (Homo sapiens, UniProt Q02127)
Test: Inhibition of DHODH (unknown origin) using L-dihydroorotic acid as substrate preincubated for 30 mins followed by substrate addition measured every 10 mins in presence of decylubiquinone by DCIP dye based coupled enzyme assay

Sequence of Dihydroorotate dehydrogenase (quinone), mitochondrial (Q02127 whole entry): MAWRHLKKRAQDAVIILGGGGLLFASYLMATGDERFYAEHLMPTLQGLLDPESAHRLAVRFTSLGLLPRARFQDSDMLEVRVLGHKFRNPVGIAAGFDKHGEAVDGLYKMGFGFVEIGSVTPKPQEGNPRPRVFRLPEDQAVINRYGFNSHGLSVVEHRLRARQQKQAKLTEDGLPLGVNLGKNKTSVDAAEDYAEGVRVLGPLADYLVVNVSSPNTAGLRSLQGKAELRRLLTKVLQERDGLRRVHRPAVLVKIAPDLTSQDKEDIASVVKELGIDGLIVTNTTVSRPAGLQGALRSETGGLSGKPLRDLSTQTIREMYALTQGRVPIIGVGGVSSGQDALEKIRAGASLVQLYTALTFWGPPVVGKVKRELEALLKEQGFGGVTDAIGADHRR

Compound | IC50 [nM]
Cc1nc2c(C(=O)O)cc(-c3ccc(-n4c(C)ccc4C)cc3)cc2[nH]1 | 1
Cc1cccc(-c2ccc(-c3cc(C(=O)O)c4nc(C)[nH]c4c3)cc2)c1 | 1
Cc1nc2c(C(=O)O)cc(-c3c(F)c(F)c(-c4ccccc4)c(F)c3F)cc2[nH]1 | 1
Cc1nc2c(C(=O)O)cc(-c3ccc(-c4ccc(O)cc4)cc3)cc2[nH]1 | 10
Cc1nc2c(C(=O)O)cc(-c3c(F)c(F)c(-c4ccc(CN5CCCC(F)(F)C5)cc4)c(F)c3F)cc2[nH]1 | 1

Now from value to molecule:

IC50 [nM] | Compound
10 | Cc1nc2c(C(=O)O)cc(-c3c(F)c(F)c(-c4ccc(CN5CCOCC5)cc4)c(F)c3F)cc2[nH]1
1 | Cc1nc2c(C(=O)O)cc(-c3ccc(-c4ccccc4CN4CCCC4)cc3)cc2[nH]1
10 | Cc1nc2c(C(=O)O)cc(-c3ccc(-c4ccccc4)cc3)cc2[nH]1
